From patent US7544700B2, “Pharmaceutically active sulfonamide derivatives bearing both lipophilic and ionisable moieties as inhibitors of protein JunKinases” (Laboratoires Serono SA, priority 2000, dated 2009) come the findings set out here.

Each structure is given as a SMILES string. Some results are limits rather than exact numbers.

One series has as its target GST-JNK3 (Homo sapiens, UniProt P53779). As to the kind of experiment: JNK3 in vitro assay (33P incorporation into c-jun, SPA). The class given is biochemical. Here is the method: (§1) The phosphorylation of c-jun by JNK2 or JNK3 may be followed by monitoring the incorporation of ^33P into c-jun following the protocol below. The inhibitory activity of the compounds according to formula I, in respect of c-jun phosphorylation through JNK, is determined by calculating the phosphorylation activity of a JNK in the presence or absence of the test compounds according to formula I.
(§2) JNK3 and/or -2 assays are performed in 96 well NM plates: incubation of 0.5 μg of recombinant, pre-activated GST-JNK3 or GST-JNK2 with 1 μg of recombinant, biotinylated GST-c-Jun and 2 μM ^33γ-ATP (2 nCi/μl), in the presence or absence of compounds according to formula I and in a reaction volume of 50 μl containing 50 mM Tris-HCl, pH 8.0; 10 mM MgCl2; 1 mM Dithiothreitol, and 100 μM NaVO4. The incubation is performed for 120 min. at R.T and stopped upon addition of 200 μl of a solution containing 250 μg of Streptavidine-coated SPA beads (Amersham, Inc.)*, 5 mM EDTA, 0.1% Triton X-100 and 50 μM ATP, in phosphate saline buffer. After incubation for 60 minutes at RT, beads are sedimented by centrifugation at 1500×g for 5 minutes, resuspended in 200 μl of PBS containing 5 mM EDTA, 0.1% Triton X-100 and 50 μM ATP and the radioactivity measured in a scintillation β counter, following sedimentation of the beads as described above. By replacing biotinylated GST-c Jun with biotinylated GST-1ATF2 or biotinylated myelin basic protein, this assay may also be used to measure inhibition of pre-activated p38 and ERK MAP Kinases, respectively.

For a further series, the target named is GST-JNK2 (Homo sapiens, UniProt P45984). As to the kind of experiment: JNK2 in vitro assay (33P incorporation into c-jun, SPA). The class given is biochemical. As to the method: as §1, §2
In series [1] the test system is Hela luciferase reporter-c-Jun (HLR-c-Jun) cell lines. In words: C-Jun reporter assay. The class given is cell-based. The conditions noted are these: Homo sapiens, MEKK-1 transfected HLR-c-Jun cells. The text has this: The phosphorylation of the transcriptional factor, c-jun, by JNK in the MAP kinase signal transduction pathway can be followed via a trans-reporting system such as the commercially available PathDetect® (32).
A trans-reporting system allows one to follow, via Luciferase activity, the activation status of a fusion trans-activator protein. The trans-activator protein consists of the activation domain of the transcriptional factor of interest (c-jun) fused with a yeast transcriptional activator, GAL4 DNA binding domain (dbd). The GAL4 dbd has the advantage that no known mammalian transcriptional factors can bind to it and therefore the background noise of the assay is very low.
In the present case, Hela luciferase reporter-c-Jun (HLR-c-Jun) cell lines which constitutively express GAL4-cJun were used.
The MEKK-1 gene was inserted. MEKK-1 is a MAPKKK which triggers the activation of JNK. Expression of wild type MEKK-1 is sufficient for JNK activation (33).
Once, JNK is activated it can induce the phosphorylation of the c-jun domain of the fusion trans-activator protein (GAL4dbd-cJun) which forms a dimer. The dimer is then is able to bind to a GAL4 upstream activating sequence (GAL4 UAS) of the reporter which activates Luciferase expression.
Luciferase expression is detected by luminescence using a simple assay such as Dual-Luciferase® Reporter Assay System (34) in which Renilla is used as a “control reporter”.
Inhibition of JNK is observed as a decrease in Luciferase expression and detected by a decrease in luminescence.
HLR-c-Jun cells are cultured in DMEM High Glc supplemented with 10% FCS (Sigma), 2 mM Glutamine (Gibco), P/S, Hygromycin b 100 μg/mL and G418 250 μg/mL.
The cell suspensions are diluted with medium to give about 3.5×10^6 cells/mL and […] of cell suspension are put onto 2 10 cm culture dishes containing 9 mL of culture medium.
Transfections • Control: 0.2 μg pTK Renilla, 5.8 μg pBluescript KS, 500 μl OPTIMEM (GOBCO), 18 μl Fugene 6. • Induced: 0.1 μg pMEKK1, 0.2 μg pTK Renilla, 5.7 μg pBluescript KS, 500 μl OPTIEM (GIBCO), 18 μl Fugene 6 30′ RT.
The transfection mixture is added to the plated cells. The plates are incubated over night at 37° C. in a humidified atmosphere of 5% CO2 in air.
A 96 wells plate (100 μl of culture medium per well) is prepared. Negative control (vehicle): 2 μl of DMSO is added to the 100 μl (in triplicate). […]
The medium is removed from the plate and the cells are washed two times with 100 μl PBS. […] The luminometer reading is recorded.
−50 μl of Luciferase Assay Reagent II are injected and readings are recorded at 5 and 10 minutes.
50 μl of Stop & Glo® Reagent are injected and readings are recorded at 5 and 10 minutes.
The relative luminescence is then measured: RLU Luciferase/RLU Renilla.
On the technique in general: In a reporter assay the amount or activity of a reporter protein is the signal.

Series [2] deals with IL-2 release by (PMA+Ionomycin)-stimulated Jurkat cells. In words: IL-2 release assay (IL-2 ELISA). The class given is cell-based. The conditions noted are these: Homo sapiens; PMA + Ionomycine stimulated Jurkat cells. As to the method: The Ability of the Compounds According to Formula I to Modulate the Inflammatory Response by Inhibiting the Release of IL-2 was Assessed Using the Following Protocol
JNK pathway activation triggers the production of inflammatory cytokines such as IL-2. JNK can be activated by external stimuli such as PMA and Ionomycine and IL-2 production can be measured via an IL-2 ELISA test. Comparative measurements with and without the compounds of the invention according to the following protocol measure the ability of the compounds to prevent to stress-mediated IL-2 release.
Jurkat cells, a human T cell leukemia cell line (American Type Culture Collection # TIB 152) were cultured in RPMI 1640 medium (Gibco, BRL) supplemented with 10% of […] fetal calf serum (FCS), Glutamine and Penstrep. The cell suspension in the medium is diluted to give 2.10^6 cells/mL. The cells were plated (2.10^5 cells/well) on a 96-well plate containing different concentrations of a compound according to formula I (final concentration of compounds, 10, 3, 1, 0.3, 0.1 μM). This mixture is incubated 30 minutes at 37° C. in a humidified CO2 atmosphere. Cells were then treated with 10 μl PMA (Phorbolmyristate-13 Acetate-12)+Ionomycine (0.1 μM and 1 μM final concentration) in all wells except negative control. In wells without compounds, 10 μl of RPMI 2% DMSO (=0.1% final) is added. Cells are incubated 24 hours at 37° C. and then the supernatant harvested (freeze at −20° C. if not used the same day) prior to performing IL-2 ELISA test on the supernatant.
IL-2 release into the medium by (PMA+Iononomycin)-stimulated Jurkat cells, in presence or absence of test compounds may be assayed by ELISA. Following the procedure described below.
Monoclonal anti-human IL-2 antibody (MAB602) (capture), biotinylated anti-human IL-2 antibody (BAF202) (detection) and recombinant human IL-2 (202-IL-010) (standard) from From R&D Systems are used. […]
• 1. […] Optical density is measured using a microtiter plate reader set to 450 nm with correction at 570 nm.
Background: In an ELISA, binding on a coated surface is turned into a signal by an enzyme label.

A further series is described as follows: Solubility in water. To be noted: pH 7.4, aqueous buffer, pH of 7.4 at room temperature. Type of series: physicochemical. As to the method: The compounds have been assessed in respect of their solubility in water, at a pH of 7.4 at room temperature. In general the solubility of compounds of formula (I) is in a range of at least 50 μg/mL solvent, more preferably of at least 100 μg/mL solvent. For instance compounds (63), (163), (198) display a solubility in water of at least 200 μg/mL solvent.

The next series has as its target JNK1 (Homo sapiens, UniProt P45983). As to the kind of experiment: JNK1 inhibition. To be noted: read-out: inhibition (IC50) with regard to JNK1. The class given is biochemical.

Sequence of GST-JNK3 (P53779 whole entry): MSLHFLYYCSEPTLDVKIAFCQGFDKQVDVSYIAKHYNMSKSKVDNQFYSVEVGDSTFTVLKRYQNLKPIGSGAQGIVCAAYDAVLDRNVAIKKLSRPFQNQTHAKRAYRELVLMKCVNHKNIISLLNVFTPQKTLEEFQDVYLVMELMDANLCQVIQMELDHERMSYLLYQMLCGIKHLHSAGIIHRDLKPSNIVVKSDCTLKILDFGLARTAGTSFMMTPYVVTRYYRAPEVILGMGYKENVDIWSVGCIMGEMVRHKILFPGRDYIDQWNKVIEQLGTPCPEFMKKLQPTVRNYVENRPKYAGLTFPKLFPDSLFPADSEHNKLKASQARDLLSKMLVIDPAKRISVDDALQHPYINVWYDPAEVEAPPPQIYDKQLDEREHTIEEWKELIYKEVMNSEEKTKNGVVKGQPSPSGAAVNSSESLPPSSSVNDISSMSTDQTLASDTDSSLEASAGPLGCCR
Sequence of GST-JNK2 (P45984 whole entry): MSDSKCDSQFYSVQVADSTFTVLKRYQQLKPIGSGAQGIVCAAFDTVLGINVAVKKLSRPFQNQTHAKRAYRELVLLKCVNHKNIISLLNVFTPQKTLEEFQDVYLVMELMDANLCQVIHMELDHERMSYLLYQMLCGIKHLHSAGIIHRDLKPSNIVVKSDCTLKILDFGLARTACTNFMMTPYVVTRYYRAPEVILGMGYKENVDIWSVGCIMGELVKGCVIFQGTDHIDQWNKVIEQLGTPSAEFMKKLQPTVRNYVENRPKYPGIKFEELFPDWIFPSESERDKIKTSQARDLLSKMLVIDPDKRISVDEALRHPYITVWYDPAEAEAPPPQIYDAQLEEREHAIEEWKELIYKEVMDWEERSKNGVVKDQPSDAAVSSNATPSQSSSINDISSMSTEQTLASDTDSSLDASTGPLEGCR
Sequence of JNK1 (P45983 whole entry, species assumed): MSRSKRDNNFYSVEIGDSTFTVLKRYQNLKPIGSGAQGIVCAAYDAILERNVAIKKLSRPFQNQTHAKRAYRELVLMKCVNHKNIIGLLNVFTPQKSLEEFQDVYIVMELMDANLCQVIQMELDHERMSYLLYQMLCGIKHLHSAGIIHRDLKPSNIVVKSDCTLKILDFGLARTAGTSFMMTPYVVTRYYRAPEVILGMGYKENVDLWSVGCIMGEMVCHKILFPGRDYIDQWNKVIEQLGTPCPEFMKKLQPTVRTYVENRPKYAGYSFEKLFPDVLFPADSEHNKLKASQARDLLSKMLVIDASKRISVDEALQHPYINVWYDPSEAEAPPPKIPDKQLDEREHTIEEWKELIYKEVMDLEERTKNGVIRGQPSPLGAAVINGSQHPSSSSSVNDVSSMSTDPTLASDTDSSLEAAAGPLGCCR

On to `CCCCCCN(CC1CCCCC1)C1CCN(S(=O)(=O)c2ccc(CNC(=O)c3ccc(Cl)cc3)s2)CC1` [Example 155, 4-chloro-N-{[5-({4-[(cyclohexylmethyl)(hexyl)-amino]piperidin-1-yl}sulfonyl)thien-2-yl]methyl}-benzamide], for which the IC50 against GST-JNK3 and at GST-JNK2 was less than 600 nM each time.

On to `COc1cccc(C(=O)NCc2ccc(S(=O)(=O)N3CCC(NCc4c(C)c(C)c(C)c(C)c4C)CC3)s2)c1` [Example 10, 3-methoxy-N-{[5-({4-[(2,3,4,5,6-pentamethylbenzyl)amino]piperidin-1-yl}sulfonyl)thien-2-yl]methyl}benzamide], for which the IC50 (in general, the midpoint of a concentration-inhibition curve) in series [1] is less than 700 nM.

Turning to `COc1cccc(C(=O)NCc2ccc(S(=O)(=O)N3CCC(NCc4ccc(S(=O)(=O)C(F)(F)F)cc4)CC3)s2)c1` [Example 64, 3-methoxy-N-[(5-{[4-({4-[(trifluoromethyl)sulfonyl]benzyl}-amino)piperidin-1-yl]sulfonyl}thien-2-yl)methyl]benzamide], in series [2], the IC50 was less than 800 nM.

Take `O=C(NCc1ccc(S(=O)(=O)N2CCC(NCCC3CCCCC3)CC2)s1)c1ccc(Cl)cc1` [Example 70, 4-chloro-N-{[5-({4-[(2-cyclohexylethyl)amino]piperidin-1-yl}sulfonyl)thien-2-yl]methyl}benzamide]: the IC50 against GST-JNK3 and at GST-JNK2 was less than 600 nM in each case.

For the compound `COc1cccc(C(=O)NCc2ccc(S(=O)(=O)N3CCC(NCCCN4CCOCC4)C3)s2)c1` (stereo not drawn) [Example 176, 3-methoxy-N-{[5-({3-[(3-morpholin-4-ylpropyl)amino]pyrrolidin-1-yl}sulfonyl)thien-2-yl]methyl}benzamide], the IC50 at GST-JNK3 and at GST-JNK2 was less than 600 nM throughout.

For the compound `COc1cccc(C(=O)NCc2ccc(S(=O)(=O)N3CCCC(NCCC4CCCCC4)CC3)s2)c1` (stereo not drawn) [Example 132, N-{[5-({4-[(2-cyclohexylethyl)amino]azepan-1-yl}sulfonyl)thien-2-yl]methyl}-3-methoxy-benzamide], the IC50 at GST-JNK3 is less than 600 nM.

Regarding `CCCCCCN(C)C1CCN(S(=O)(=O)c2ccc(CNC(=O)c3ccc(Cl)cc3)s2)CC1` [Example 163, 4-chloro-N-{[5-({4-[hexyl(methyl)amino]piperidin-1-yl}sulfonyl)thien-2-yl]methyl}benzamide], in “Solubility in water”, the solubility (in general, how much of the substance goes into solution per volume) is not below 200 µg/mL.

As for `O=C(NCc1ccc(S(=O)(=O)N2CCC(NCc3ccc(S(=O)(=O)C(F)(F)F)cc3)CC2)s1)c1ccc(Cl)cc1` [Example 117, 4-chloro-N-[(5-{[4-({4-[(trifluoromethyl)sulfonyl]benzyl}amino)-1-piperidinyl]sulfonyl}-2-thienyl)methyl]benzamide], the IC50 in series [1] was less than 700 nM.

Take `CCCCCCCCCCNC1CCN(S(=O)(=O)c2ccc(CNC(=O)c3cccc(OC)c3)s2)CC1` [Example 86, 3-methoxy-N-[(5-{[4-(decylamino)piperidin-1-yl]sulfonyl}thien-2-yl)methyl]benzamide]: the IC50 on JNK1 lay in the range of 100 to 700 nM.

The compound `CCCOc1ccc(CNC2CCN(S(=O)(=O)c3ccc(CNC(=O)c4cccc(OC)c4)s3)CC2)cc1` [Example 11, 3-methoxy-N-{[5-({4-[(4-propoxybenzyl)amino]piperidin-1-yl}sulfonyl)thien-2-yl]methyl}benzamide] gave an IC50 in series [1] of less than 700 nM.

As to `CCCCCNCC1CCN(S(=O)(=O)c2ccc(CNC(=O)c3cccc(OC)c3)s2)CC1` [Example 195, 3-methoxy-N-{[5-({4-[(pentylamino)methyl]piperidin-1-yl}sulfonyl)-thien-2-yl]methyl}benzamide], the IC50 at GST-JNK3 and on GST-JNK2 was less than 600 nM each time.
